Reference: patent US6034120A, “Insect antifeedant for agriculture” (Morita Kaguku Kogyo Co., Ltd., priority 1997, dated 2000)
Entries after “also recorded” stand apart in the source; their conditions may differ.

Assays:
[1] = tested on: Spodoptera litura FABRICIUS; test: antifeeding effect by the leaf disk method (antifeedant index); type: in vivo, Spodoptera litura FABRICIUS larvae, third or fourth instar; design: key to Antifeedant index (AFI): AFI = 100×T/(T+C); 50 = same as control, ≤30 = antifeeding; conditions: for Antifeedant index (AFI): 30 or less = antifeeding activity
Description: A test for an antifeeding effect on insects was conducted by the leaf disk method. After wiping off the surface of a leaf of Ipomoea batatas with acetone in order to remove extraneous matter on the leaf, a disk having a diameter of 2 cm was cut out with a cork borer, avoiding the veins of the leaf. An acetone solution containing the predetermined amount of samples was applied to the disk, which was sufficiently air-dried. As a control, the same amount of acetone solution was used, and applied to the leaf disk in the same manner as in the sample. Two pieces each of the sample and the control were placed crosswise in a petri dish, and 15 larvae of Spodoptera litura FABRICIUS were set in the petri dish to put on the lid. The Spodoptera litura FABRICIUS used was the third or fourth instar. This is because the younger the larvae, the greater the effect they receive due to allelochemical. The first or second instar larvae prefer to eat a tender portion of the leaf because they cannot eat hard veins or fiber of the leaf. On the other hand, the fifth or sixth instar larvae move the leafdisk because they are well-built. Further, the antifeeding effect due to allelochemical is lowered because they eat any portion of the leaf. Therefore, it is better not to use the fifth or sixth instar larvae.
The petri dish was allowed to stand in a thermostatic chamber at 25 to 27° C. under light. Two to 5 hours later, 4 pieces of the leaf were taken out to convert them into black and white pictures with a photocopier. Using a scanner, the disk area was digitized, and then the disk area was expressed numerically at the pixel unit on a Mackintosh computer using a free soft NIH image.
The method of calculating an antifeedant index (AFI) is as follows. First, a standard area of an intact leaf is calculated. The ratio of the area of the leaf consumed by the larvae to the standard area of the leaf was calculated.
Antifeedant index=100×T/(T+C)
T: Total percentage of treated disk consumed
C: Total percentage of control disk consumed
If this index is 30 or less, the tested leaf has antifeeding activity. […] When the consumed area of the sample and that of the control is the same, the antifeedant index indicates 50.
Concerning scabequinone, remirol, cyperaquinone and methylremirol, the AFI and FR were calculated according to the method for testing an antifeeding effect.

[2] = tested on: Tyrophagus putrescentiae SCHRANK; test: dry film method in test tube, repelling of Tyrophagus putrescentiae; type: in vivo; conditions: 1 mg, 25° C., 1 day
Description: To 1 mg of cyperaquinone was added acetone and the resulting solution was charged in a test tube (a diameter of 1 cm). Thereafter, the solution was treated by the dry film method. (The method is as follows: a solution was charged at the bottom of a test tube. After applying the solution to the wall of the test tube, the solvent was removed to leave a sample on the wall of the test tube.) Fifty Tyrophagus putrescentiae SCHRANK were set in the test tube. After growing them at 25° C. for 1 day, the confirmation was conducted with a stereomicroscope.

plants = conditions: background statement; cited from earlier work
[3] = tested on: Plutella maculipennis CURTIS; test: test for an insecticidal effect (contact application); type: in vivo, Plutella maculipennis CURTIS larvae, third instar; conditions: for LD50: acetone solution applied to third instar larvae, 24 hours, probit method; for insecticidal effect / LD50 comparison (in words): versus scabequinone
Description: In order to test the insecticidal effect of remirol, methylremirol and scabequinone, acetone was added to each sample and the resulting acetone solution was applied to the third instar larvae of Plutella maculipennis CURTIS. Thereafter, Kaiwaredaikon (Raphanus sativus LINN, C.V. shijunichi) was fed to them as a feed and the number of survived larvae after 24 hours was counted. LD50 (lethal dose 50) was calculated by the probit method.

[4] = 1 mg/leaf, 50 = no difference from control

## C=C(C)C1Cc2c(cc(OC)c(C(C)=O)c2OC)O1 (racemic) [racemic methylremirol]
[1]; [4]
  Antifeedant index (AFI): 44.3

## C=C(C)C1Cc2c(OC)cc(OC)cc2O1 (stereo not drawn) [2-isopopenyl-4,6-methoxy-coumaran, 2-isopropenyl-4,6-methoxycoumaran]
[1]; [4]
  Antifeedant index (AFI): 26.1

## C=C(C)c1cc2c(o1)C(=O)c1occ(C)c1C2=O [cyperaquinone]
[1]; 0.1 mg/leaf
  FR (consumed ratio of treated leaves): 16.18
[1]; 0.25 mg/leaf
  FR (consumed ratio of treated leaves): 13.92
  Antifeedant index (AFI): 26.03
[1]; 1 mg/leaf
  FR (consumed ratio of treated leaves): 9.98
[1]; [4]
  Antifeedant index (AFI): 20.98
[2]
  mortality (in words): Some of the Tyrophagus putrescentiae SCHRANK were dead
  repelling effect (in words): had a repelling effect on Tyrophagus putrescentiae SCHRANK

## O=C1C=CC(=O)c2c(O)cccc21 [juglone, reference compound]
plants
  anti-breeding effect on the plants: strong anti-breedingeffect on the plants
[1]; 0.1 mg/leaf
  FR (consumed ratio of treated leaves): 0
  Antifeedant index (AFI): 0
[1]; 0.25 mg/leaf
  FR (consumed ratio of treated leaves): 0
  Antifeedant index (AFI): 0
[1]; 1 mg/leaf
  FR (consumed ratio of treated leaves): 0
[1]; [4]
  Antifeedant index (AFI): 0

## C=C(C)C1Cc2c(cc(OC)c(C(C)=O)c2OC)O1 (stereo not drawn) [methylremirol]
[3]
  LD50: 1.0 mg
  insecticidal effect / LD50 comparison (in words): superior to scabequinone in the insecticidal effect
[1]; [4]
  Antifeedant index (AFI): 0

## O=c1c(O)c(-c2ccc(O)c(O)c2)oc2cc(O)cc(O)c12 [quercetin, reference compound]
[1]; 0.1 mg/leaf
  FR (consumed ratio of treated leaves): 15.96
  Antifeedant index (AFI): 25.04
[1]; 0.25 mg/leaf
  FR (consumed ratio of treated leaves): 13.07
  Antifeedant index (AFI): 25.08
[1]; 1 mg/leaf
  FR (consumed ratio of treated leaves): 0.66
[1]; [4]
  Antifeedant index (AFI): 2.07

## C=C(C)C1Cc2c(cc(OC)c(C(C)=O)c2O)O1 (stereo not drawn) [remirol]
[3]
  LD50: 0.125 mg
  insecticidal effect / LD50 comparison (in words): superior to scabequinone in the insecticidal effect
[1]; 0.1 mg/leaf
  FR (consumed ratio of treated leaves): 11.33
[1]; 0.25 mg/leaf
  FR (consumed ratio of treated leaves): 10.31
  Antifeedant index (AFI): 19.02
[1]; 1 mg/leaf
  FR (consumed ratio of treated leaves): 3.84
[1]; [4]
  Antifeedant index (AFI): 8.57

## Cc1coc2c1C(=O)C1=C(OCC(C(C)C)C1)C2=O (stereo not drawn) [scabequinone]
[3]
  LD50: 1.371 mg
[1]; 0.1 mg/leaf
  FR (consumed ratio of treated leaves): 1.61
  Antifeedant index (AFI): 4.22
[1]; 0.25 mg/leaf
  FR (consumed ratio of treated leaves): 0.47
  Antifeedant index (AFI): 2.16
[1]; [4]
  Antifeedant index (AFI): 0
[1]; leaf disk method
  antifeeding effect (in words): did quite well in the antifeeding effect; also recorded: by far superior to another commercially available product quercetin
